Converted amounts (≈) assume the structure as drawn. Like-named read-outs stand apart in the source and are kept apart here. Where no end group is shown, it is not given here.
Experiments:
[1] = tested on: MDR E. coli ASEC 7; design: method as in Asan hospital; key to susceptibility category: S: susceptible; R: resistant; I: intermediate; conditions: ref Asan hospital, cited from earlier work; for MIC: ASEC 7 (ESBL), resistance information of clinical isolate; for susceptibility category: ASEC 7
[2] = tested on: MDR E. coli ASEC 13; design: method as in Asan hospital; key to susceptibility category: S: susceptible; R: resistant; I: intermediate; conditions: ref Asan hospital, cited from earlier work; for MIC: ASEC 13 (AmpC), resistance information of clinical isolate; for susceptibility category: ASEC 13
[3] = tested on: MDR E. coli ASEC 5; design: method as in Asan hospital; key to susceptibility category: S: susceptible; R: resistant; I: intermediate; conditions: ref Asan hospital, cited from earlier work; for MIC: ASEC 5 (ESBL), resistance information of clinical isolate; for susceptibility category: ASEC 5
[4] = tested on: MDR E. coli ASEC 2; design: method as in Asan hospital; key to susceptibility category: S: susceptible; R: resistant; I: intermediate; conditions: ref Asan hospital, cited from earlier work; for MIC: ASEC 2 (NDM-7), resistance information of clinical isolate; for susceptibility category: ASEC 2
[5] = tested on: MDR E. coli ASEC 8; design: method as in Asan hospital; key to susceptibility category: S: susceptible; R: resistant; I: intermediate; conditions: ref Asan hospital, cited from earlier work; for MIC: ASEC 8 (ESBL), resistance information of clinical isolate; for susceptibility category: ASEC 8
[6] = tested on: MDR E. coli ASEC 16; design: method as in Asan hospital; key to susceptibility category: S: susceptible; R: resistant; I: intermediate; conditions: ref Asan hospital, cited from earlier work; for MIC: ASEC 16 (AmpC), resistance information of clinical isolate; for susceptibility category: ASEC 16
[7] = tested on: ASEC 16 biofilm; conditions: crystal violet A595, 24 h, three independent experiments
Protocol: (§1) Crystal violet staining was performed to determine the degree of biofilm formation by the E. coli 25922, S. aureus 25923, and ASEC strains. E. coli 25922 and S. aureus 25923 were cultured overnight in LB and TSB media with aeration at 180 rpm, respectively. Bacterial suspensions with 0.2% glucose (5 × 10^5 CFU mL^−1) were added to a 96-well plate (30096, surface treatment; SPL Life Sciences) and incubated for 24 h at 37°C. The supernatant was removed and fixed with 100% methanol. Next, 100 μL of crystal violet was added to the plate and incubated to dye the cells for 1 h, followed by rinsing the cells three times with distilled water (dH2O). After the crystal violet was dissolved with 95% ethanol, the mass of biofilm formation at 595 nm was measured using a Versa Max microplate reader (Molecular Devices). The inhibitory effect of PN5 against biofilm formed by E. coli 25922, S. aureus 25923, and three MDR E. coli strains (ASEC 2, 16, and 18) were determined. These cells were cultured overnight in LB and TSB media. Bacterial suspensions (5 × 10^5 CFU mL^−1) containing 0.2% glucose were added to 96-well plates and PN5 was serially diluted to a final concentration of 32 μM. The minimal biofilm inhibitory concentration (MBIC) was determined in three independent experiments. The percentage of biofilm formation was measured using the equation (A595 of treated biofilm/A595 of untreated biofilm) × 100. Similarly, the MDR ASEC 1 to 19 strains were cultured overnight in LB medium and seeded into 96-well plates with medium containing 0.2% glucose at 5 × 10^5 CFU mL^−1 of the bacterial suspension. Biofilm staining was performed as described above. SYTO 9 (6 μM) fluorescence in LIVE/DEAD BacLight was used to visualize the degree of biofilm formation. […] After 24 h, the culture supernatant of the peptide and bacteria was discarded, and the pellet was fixed with 100% methanol. A fluorescence mixture of SYTO 9 and propidium iodide was then added to each well, and the fluorescence was evaluated with an EVOS FL color imaging system (Thermo Fisher Scientific) with a 4× objective ([22]).

[8] = tested on: ASEC 18 biofilm; conditions: crystal violet A595, 24 h, three independent experiments
Protocol: as §1

[9] = tested on: ASEC 2 biofilm; conditions: for biofilm formation visualized with SYTO 9: antibiotics at 32 μM, 24 h, SYTO 9 staining (Fig. 3F); for MBIC50: crystal violet A595, 24 h, three independent experiments
Protocol: as §1

[10] = tested on: MDR E. coli ASEC 18; design: method as in Asan hospital; key to susceptibility category: S: susceptible; R: resistant; I: intermediate; conditions: ref Asan hospital, cited from earlier work; for MIC: ASEC 18 (AmpC), resistance information of clinical isolate; for susceptibility category: ASEC 18
[11] = tested on: MDR E. coli ASEC 9; design: method as in Asan hospital; key to susceptibility category: S: susceptible; R: resistant; I: intermediate; conditions: ref Asan hospital, cited from earlier work; for MIC: ASEC 9 (ESBL), resistance information of clinical isolate; for susceptibility category: ASEC 9
[12] = tested on: MDR E. coli ASEC 1; design: method as in Asan hospital; key to susceptibility category: S: susceptible; R: resistant; I: intermediate; conditions: ref Asan hospital, cited from earlier work; for MIC: ASEC 1 (carbapenemase NDM-1), resistance information of clinical isolate; for susceptibility category: ASEC 1
[13] = tested on: E. coli – Ceftazidime (Passage 25); test: microbe, parasite or virus in culture; format: cell-based, Escherichia coli
Protocol: (§2) E. coli ATCC 25922 cells were incubated overnight at 37°C in LB medium with shaking (180 rpm) and then adjusted to 2 × 10^5 CFU mL^−1; 0.5× MIC of PN5 and antibiotics were added to the medium and cultured overnight at 37°C with aeration (180 rpm). The MIC was determined by measuring the OD600 using a Versa Max microplate reader. On the next day, to measure the MIC with the bacteria grown after treatment with 0.5× MIC, the bacteria and antibiotic were adjusted to the same concentration, and the bacteria were cultured by adding 0.5× MIC in the same manner. The initial culture was continuously cultured for 25 passages in this manner.

[14] = tested on: E. coli – Meropenem (Passage 25); test: microbe, parasite or virus in culture; format: cell-based, Escherichia coli
Protocol: as §2

[15] = tested on: E. coli ATCC 25922; test: microbe, parasite or virus in culture; format: cell-based, Escherichia coli; conditions: for MIC: Escherichia coli
Protocol: as §2

[16] = Escherichia coli, read-out: MIC, value in parentheses
[17] = E. coli ATCC 25922 passaged with 0.5× MIC of the same agent
[18] = ATCC25922, read-out: MIC after 25 passages
[19] = ATCC25922, read-out: MIC at passage 1

Compound | MIC [1] | susceptibility category [1] | MIC [2] [µg/mL] | susceptibility category [2] | MIC [3] | susceptibility category [3] | MIC [4] [µg/mL] | susceptibility category [4] | MIC [5] | susceptibility category [5] | MIC [6] | susceptibility category [6] | MBIC50 [7] | MBIC50 [8] | biofilm formation visualized with SYTO 9 [9] | MBIC50 [9] | MIC [10] | susceptibility category [10] | MIC [11] | susceptibility category [11] | other results
CO/N=C(\C(=O)N[C@@H]1C(=O)N2C(C(=O)O)=C(COC(C)=O)CS[C@H]12)c1csc(N)n1 [Cefotaxime] | > 32 µg/mL | R | > 32 | R | > 32 µg/mL | R | > 32 | R | > 32 µg/mL | R | > 32 µg/mL | R | 128 (58.3) μM | >128 (>58.3) μM | did not inhibit biofilm formation | >128 (>58.3) μM | 32 µg/mL (≈ 70.3 µM) | R | > 32 µg/mL | R | MIC [12]: > 32 µg/mL; susceptibility category [12]: R
CC(C)(O/N=C(\C(=O)N[C@@H]1C(=O)N2C(C(=O)[O-])=C(C[n+]3ccccc3)CS[C@H]12)c1csc(N)n1)C(=O)O [Ceftazidime] | > 16 µg/mL | R | > 16 | R | > 16 µg/mL | R | > 16 | R | > 16 µg/mL | R | > 16 µg/mL | R | >128 (>69.95) μM | >128 (>69.95) μM | did not inhibit biofilm formation | >128 (>69.95) μM | > 16 µg/mL | R | > 16 µg/mL | R | MIC ([13]; Escherichia coli, ATCC25922): 128 µM (≈ 70 µg/mL); MIC [13, 16]: 0.25 µM (≈ 0.137 µg/mL); MIC ([14]; Escherichia coli, ATCC25922): 0.25 µM (≈ 0.137 µg/mL); MIC [14, 16]: 0.25 µM (≈ 0.137 µg/mL); fold increase of MIC after 25 passages [15, 17]: 512 fold; MIC [15, 18]: 128 µM (≈ 70 µg/mL); MIC [15, 19]: 0.25 µM (≈ 0.137 µg/mL); MIC [12]: > 16 µg/mL; susceptibility category [12]: R
C[C@@H](O)[C@H]1C(=O)N2C(C(=O)O)=C(S[C@@H]3CN[C@H](C(=O)N(C)C)C3)[C@H](C)[C@H]12 [Meropenem] | <= 1 μg mL-1 | S | > 8 | R | <= 4 μg mL-1 | S | > 8 | R | <= 1 μg mL-1 | S | <= 1 μg mL-1 | S | <2 (<0.77) μM | <2 (<0.77) μM | did not inhibit biofilm formation | 64 (24.54) μM | <= 1 μg mL-1 | S | <= 1 μg mL-1 | S | MIC ([13]; Escherichia coli, ATCC25922): 0.0312 µM (≈ 0.012 µg/mL); MIC [13, 16]: 0.0312 µM (≈ 0.012 µg/mL); MIC ([14]; Escherichia coli, ATCC25922): 0.25 µM (≈ 0.0959 µg/mL); MIC [14, 16]: 0.0312 µM (≈ 0.012 µg/mL); fold increase of MIC after 25 passages [15, 17]: 8 fold; MIC [15, 18]: 0.25 µM (≈ 0.0959 µg/mL); MIC [15, 19]: 0.0312 µM (≈ 0.012 µg/mL); MIC [12]: 8 µg/mL (≈ 20.9 µM); susceptibility category [12]: R
FKFLARTGKFL-NH2 [PN5] |  |  |  |  |  |  |  |  |  |  |  |  | 16 (21.22) μM | 16 (21.22) μM |  | 8 (10.61) μM |  |  |  |  | MIC ([13]; E. coli ATCC 25922 with resistance induced by ceftazidime, passage 25, three independent experiments): 16 µM; MIC ([14]; E. coli ATCC 25922 with resistance induced by meropenem, passage 25, three independent experiments): 16 µM; MIC after 25 passages [15, 17]: 16 µM

Source: paper PMC9603901, “Therapeutic Potential of Antimicrobial Peptide PN5 against Multidrug-Resistant E. coli and Anti-Inflammatory Activity in a Septic Mouse Model” (Microbiology Spectrum, 2022)
